According to patent US10946051B2, “Strain of Bifidobacterium animalis subsp. lactis CECT 8145 and use thereof for the treatment and/or prevention of excess weight and obesity and associated diseases” (priority 2013, dated 2021):
Converted amounts (≈) assume the structure as drawn. Like-named read-outs stand apart in the source and are kept apart here.

System: strain BIF-1
Test: Antibiotic resistance profile (minimum inhibitory concentration)
Type: cell-based, Bifidobacterium animalis subsp. lactis
Method: Specifically, the production of unwanted metabolites was evaluated: lactic acid isomer production (Table 9), bile-salt deconjugation (Table 10) and biogenic amine production (Table 11), and the antibiotic resistance profile (Table 12).

[1] = Bifidobacterium animalis, BIF1; read-out: CMI (minimum inhibitory concentration of antibiotics)

Compound	MIC [1] [µg/mL]	further results
CC1(C)S[C@@H]2[C@H](NC(=O)[C@H](N)c3ccccc3)C(=O)N2[C@H]1C(=O)O [Ampicillin]	2 (≈ 5.72 µM)	
O=C(N[C@H](CO)[C@H](O)c1ccc([N+](=O)[O-])cc1)C(Cl)Cl [Chloramphenicol]	4 (≈ 12.4 µM)	
CC[C@H]1OC(=O)[C@H](C)[C@@H](O[C@H]2C[C@@](C)(OC)[C@@H](O)[C@H](C)O2)[C@H](C)[C@@H](O[C@@H]2O[C@H](C)C[C@H](N(C)C)[C@H]2O)[C@](C)(O)C[C@@H](C)C(=O)[C@H](C)[C@@H](O)[C@]1(C)O [Erythromycin]	0.5 (≈ 0.681 µM)	
NC[C@H]1O[C@H](O[C@H]2[C@H](O)[C@@H](O[C@H]3O[C@H](CO)[C@@H](O)[C@H](N)[C@H]3O)[C@H](N)C[C@@H]2N)[C@H](O)[C@@H](O)[C@@H]1O [Kanamycin]	128 (≈ 264 µM)	
[H]/N=C(/N)N[C@H]1[C@H](O)[C@@H](O)[C@H](O[C@@H]2O[C@@H](C)[C@](O)(C=O)[C@H]2O[C@@H]2O[C@@H](CO)[C@H](O)[C@@H](O)[C@@H]2NC)[C@@H](N/C(N)=N\[H])[C@@H]1O [Streptomycin]	128 (≈ 220 µM)	
CN(C)[C@@H]1C(O)=C(C(N)=O)C(=O)[C@@]2(O)C(O)=C3C(=O)c4c(O)cccc4[C@@](C)(O)[C@H]3C[C@@H]12 [Tetracycline]	8 (≈ 18 µM)	
CN[C@H](CC(C)C)C(=O)N[C@H]1C(=O)N[C@@H](CC(N)=O)C(=O)N[C@H]2C(=O)N[C@H]3C(=O)N[C@H](C(=O)N[C@H](C(=O)O)c4cc(O)cc(O)c4-c4cc3ccc4O)[C@H](O)c3ccc(c(Cl)c3)Oc3cc2cc(c3O[C@@H]2O[C@H](CO)[C@@H](O)[C@H](O)[C@H]2O[C@H]2C[C@](C)(N)[C@H](O)[C@H](C)O2)Oc2ccc(cc2Cl)[C@H]1O [Vancomycin]		MIC (Bifidobacterium animalis, BIF1, read-out: CMI (minimum inhibitory concentration of antibiotics)): 1 µg/mL (≈ 0.69 µM)
Gentamicin		CMI (minimum inhibitory concentration of antibiotics) (obtained for strain BIF-1): 64 µg/mL
